Measured values reported in patent publication US20100173837A1, “DOSING FORMS AND REGIMENS COMPRISING 3-[(R)-2-(N,N-DIMETHYLAMINO)ETHYLTHIO-SAR]-4-(GAMMAHYDROXYMETHYLLEUCINE)CYCLOSPORINE” (priority 2009, published 2010).
In brackets after ≈: the same amount, converted by molar mass. Several values for one entry are separate records, joined by “and”; a condition that tells them apart may be missing. Identical values can stand only once. Like-named read-outs stand apart in the source and are kept apart here.

What was measured:
[1] = tested on: hepatitis C (subtype 1); assay: plasma HCV RNA viral load in HCV-infected subjects, 15-day t.i.d. study; assay type: in vivo, human; details: 15 days, per os
Protocol: All human subjects were male (n=20); 75% were African American. Average age was 53.0 years. […] Viral load data from the study described in Example 4 above was measured by the quantitative Roche COBAS […] assay. The test measures HCV RNA in International Units (IU) per mL using real-time Polymerase Chain Reaction (RT-PCR) technology. […] All clinical viral load samples were assayed at LabCorp.

[2] = 500 mg b.i.d. 14-day pharmacokinetic study in healthy volunteers; details: human, in vivo, 264 h post first dose, read-out: Mean SCY-635 Plasma Concentration
Source text: SCY-635 (given as oral tablets as described in Example 3 above) was examined in a double-blind, placebo-controlled, pharmacokinetic study in normal healthy adult volunteers. […] On Day 14, only the morning dose of drug was given and blood samples were collected during the 72-hour interval immediately following administration of the final dose. In addition, blood samples for the measurement of trough drug concentrations were collected from the subjects immediately prior to the administration of SCY-635 on the mornings of Days 2-6 and 8-13. […] Concentrations of SCY-635 in human blood and plasma samples from the two subjects were determined using validated high pressure liquid chromatography/tandem mass spectrometric (HPLC-MS/MS) methods with assay ranges of 50 to 5000 ng/mL for whole blood and 15 to 2000 ng/mL for plasma.

[3] = human, in vivo
Source text: SCY-635 (given as oral tablets as described in Example 3 above) was examined in a double-blind, placebo-controlled, pharmacokinetic study in normal healthy adult volunteers. […] On Day 14, only the morning dose of drug was given and blood samples were collected during the 72-hour interval immediately following administration of the final dose. In addition, blood samples for the measurement of trough drug concentrations were collected from the subjects immediately prior to the administration of SCY-635 on the mornings of Days 2-6 and 8-13.

[4] = tested on: human hepatoma cell line containing full length replicon; assay: cytotoxicity in full length replicon cells (ribosomal RNA); assay type: cell-based; details: concentrations up to 10 μM, 72-hour incubation
Protocol: (§1) The anti-HCV activity of SCY-635 was also assessed in a human hepatoma cell line that contains a full length genotype 1b derived replicon. Cells were processed following a 72-hour incubation at 37° C. Intracellular RNA from each well was extracted and the level of HCV-specific RNA was determined by reverse transcriptase-real time PCR. Cytotoxic effects were measured by assessing ribosomal RNA as an indication of total cell numbers.

[5] = human, in vivo; remark: listed apart in the source
Source text: SCY-635 (given as oral capsules [400 milligram dose] or tablets [500 and 600 milligram doses] as described in Example 3 above) was examined in a randomized, double-blind, placebo-controlled, pharmacokinetic study in normal healthy adult volunteers. Three cohorts received a single dose of either 400, 500 or 600 milligrams of SCY-635. Each cohort was comprised of 8 human subjects (2 placebo and 6 active). Blood samples were collected from human subjects during the 72-hour interval immediately following administration of a single dose of SCY-635.

[6] = human, in vivo; remark: listed apart in the source
Protocol: SCY-635 (given as oral capsules as described in Example 3 above) was examined in a randomized, double-blind, placebo-controlled, multi-dose study to adult volunteers who are chronically infected with hepatitis C (subtype 1). Three cohorts received 100, 200 or 300 milligrams of SCY-635 three times per day (100 mg, 200 mg or 300 mg t.i.d., respectively) per os for 15 consecutive days. The 100 mg t.i.d. cohort was comprised of 7 human subjects (1 placebo and 6 active); the 200 mg t.i.d. cohort was comprised of 6 human subjects (1 placebo and 5 active); and the 300 mg t.i.d. cohort was comprised of 7 human subjects (1 placebo and 6 active).
All human subjects were male (n=20); 75% were African American. Average age was 53.0 years. Average HCV RNA plasma viremia on enrollment was 5,600,000 IU/ml, as measured by the quantitative Roche COBAS taqMan assay. 55% of human subjects were treatment naïve.

[7] = tested on: primary human renal tubular epithelial cells
Protocol: (§2) Cell cytotoxicity was assessed by measuring the release of lactate dehydrogenase from cell membranes and by measuring total ribosomal RNA. […] SCY-635 was assessed for cytotoxicity in primary human hepatocytes. […] SCY-635 was also assessed for cytotoxicity in primary human renal tubular epithelial cells.

[8] = tested on: primary human hepatocytes
Protocol: as §2

[9] = tested on: Con1 (genotype 1b) bi-cistronic subgenomic replicon in Huh-7; assay: anti-HCV activity in Huh-7 subgenomic replicon, luciferase; assay type: cell-based; details: for EC50 / EC90 / IC50 / IC90: Hepatitis C virus; for EC50: corresponds to IC50 in μM, read-out: mean effective concentration EC50; for EC90: read-out: mean effective concentration EC90
Protocol: The anti-HCV activity of SCY-635 was assessed in a human hepatoma cell line (Huh-7) that contains a Con1 (genotype 1b) bi-cistronic subgenomic replicon. The replicon contains a stable luciferase reporter gene and three cell culture adaptive mutations. The subgenomic replicon contains the 5′ terminus (which includes the HCV Internal Ribosomal Entry Site and the first few amino acids of the HCV core protein) which drives the production of the neomycin phosphotransferase protein. The EMCV IRES element directs the translation of the second cistronic unit that encodes the non-structural proteins NS3, NS4A, NS4B, NS5A, and NS5B. For comparative purposes HCV RNA replication was assessed by quantifying HCV replicon-derived luciferase activity and by quantifying HCV-specific RNA using reverse transcriptase-real time PCR. Duplicate plates were incubated with various concentrations of SCY-635 and were processed either for luciferase activity or for total RNA extraction at 24, 48, 72 and 120 hours after drug treatment. SCY-635 was tested at twelve half-log dilutions ranging from 0.00016 to 50 μM. Stock solutions of each test article were diluted into culture media and added to the plate. After a 72 hour incubation, cells were processed to determine luciferase luminescence as a measurement of antiviral activity. Three replicates were performed and mean values were calculated.

[10] = molecular target: T1, cyclophilin A (Homo sapiens, UniProt P62937); details: in vitro studies; cited from earlier work
[11] = tested on: HCV-specific RNA replication; details: subgenomic and full length replicon systems; cited from earlier work
[12] = in vitro; details: human
Protocol: as §2

[13] = tested on: Huh-7 cell line; assay: in vitro; details: Huh-7 cell line
Protocol: as §2

[14] = single dose pharmacokinetic study in healthy volunteers; details: human, in vivo, 400 mg single dose (capsules), read-out: Mean SCY-635 Plasma Concentration
Protocol: Blood samples were collected from human subjects during the 72-hour interval immediately following administration of a single dose of SCY-635. […] Concentrations of SCY-635 in human blood and plasma samples from the study described in this Example were determined using validated high pressure liquid chromatography/tandem mass spectrometric (HPLC-MS/MS) methods with assay ranges of 50 to 5000 ng/mL for whole blood and 15 to 2000 ng/mL for plasma. The table below summarizes the results obtained (“BLOQ” means below the limit of quantitation).

[15] = molecular target: T1, cyclophilin A; details: in vitro studies; cited from earlier work; remark: listed apart in the source
[16] = tested on: full length genotype 1b derived replicon in human hepatoma cell line; assay: anti-HCV activity in full length genotype 1b replicon, RT-PCR; assay type: cell-based; details: 72-hour incubation
Protocol: as §1

[17] = cell cytotoxicity on replicon cells (LDH release, ribosomal RNA); details: human, replicon cells (Huh-7 background)
Protocol: as §2

[18] = tested on: replicon cells; assay: as above; details: replicon cells
Protocol: as §2

[19] = Huh-7, by inspection of the curves
[20] = linear regression, 72 hour incubation, luciferase

T1 sequence (P62937 whole entry): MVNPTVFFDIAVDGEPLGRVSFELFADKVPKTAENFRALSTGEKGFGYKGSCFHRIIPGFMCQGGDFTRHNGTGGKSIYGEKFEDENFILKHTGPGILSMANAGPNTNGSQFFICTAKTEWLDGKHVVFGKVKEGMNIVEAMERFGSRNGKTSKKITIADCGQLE

SMILES: C/C=C/C[C@@H](C)[C@@H](O)[C@H]1C(=O)N[C@@H](CC)C(=O)N(C)[C@H](SCCN(C)C)C(=O)N(C)[C@@H](CC(C)(C)O)C(=O)N[C@@H](C(C)C)C(=O)N(C)[C@@H](CC(C)C)C(=O)N[C@@H](C)C(=O)N[C@H](C)C(=O)N(C)[C@@H](CC(C)C)C(=O)N(C)[C@@H](CC(C)C)C(=O)N(C)[C@@H](C(C)C)C(=O)N1C [SCY-635, 3-[(R)-2-(N,N-dimethylamino)ethylthio-Sar]-4-(gammahydroxymethylleucine)cyclosporine]
- mean nadir value of plasma HCV RNA below baseline ([1]; 100 mg t.i.d.): less than 0.5 log10
- median nadir value of plasma HCV RNA below baseline ([1]; 100 mg t.i.d.): less than 0.5 log10
- mean nadir value of plasma HCV RNA below baseline ([1]; 200 mg t.i.d.): less than 0.5 log10
- median nadir value of plasma HCV RNA below baseline ([1]; 200 mg t.i.d.): less than 0.5 log10
- group mean nadir value of plasma HCV RNA below baseline ([1]; 300 mg t.i.d.): 2.33 log10
- group median nadir value of plasma HCV RNA below baseline ([1]; 300 mg t.i.d.): 1.90 log10
- concentration at 264 h [2]: 411 ng/mL
- dose limiting toxicity [3]: no evidence of a dose limiting toxicity
- cell cytotoxicity [4]: absence of significant cell cytotoxicity
- dose limiting toxicity [5]: no evidence of a dose limiting toxicity
- dose limiting toxicity [6]: no evidence of a dose limiting toxicity
- 50% inhibitory concentration for cell viability [7]: 60.6 µM
- 50% inhibitory concentration for cell viability ([8]; human, 48 h): 33 µM
- selectivity index ([8]; primary human hepatocytes): approximately 300
- EC50 [9, 19]: 0.107 µg/mL (≈ 0.0809 µM)
- EC50 ([9]; Huh-7, linear regression): 0.121 µg/mL (≈ 0.0915 µM)
- EC90 ([9]; Huh-7, linear regression, corresponds to IC90 in μM): 0.501 µg/mL (≈ 0.379 µM)
- IC50 ([9]; Huh-7, by inspection of the curves, 72 hour incubation, luciferase, read-out: mean IC50 (HCV replication)): 81 nM
- IC90 ([9]; Huh-7, by inspection of the curves, read-out: mean IC90 (HCV replication)): 333 nM
- EC90 [9, 19]: 0.441 µg/mL (≈ 0.334 µM)
- IC50 ([9]; Huh-7, linear regression, 72 hour incubation, luciferase, read-out: mean calculated IC50 (HCV replication)): 91 nM
- IC90 ([9]; Huh-7, linear regression, 72 hour incubation, luciferase, read-out: mean calculated IC90 (HCV replication)): 397 nM
- mean IC75 (HCV replication) ([9]; by inspection of the curves): 0.165 µM
- mean IC95 (HCV replication) ([9]; by inspection of the curves): 0.410 µM
- mean IC98 (HCV replication) ([9]; by inspection of the curves): 0.500 µM
- mean effective concentration EC75 ([9]; by inspection of the curves): 217 ng/mL
- mean effective concentration EC95 ([9]; by inspection of the curves): 542 ng/mL
- mean effective concentration EC98 ([9]; by inspection of the curves): 661 ng/mL
- mean effective concentration EC99 ([9]; by inspection of the curves): 2088 ng/mL
- sixth IC value of the list (not named; matches EC99) ([9]; by inspection of the curves): 1.580 µM
- mean calculated IC75 (HCV replication) [9, 20]: 0.200 µM
- mean calculated IC95 (HCV replication) [9, 20]: 0.455 µM
- mean effective concentration EC75 ([9]; linear regression, corresponds to IC75 in μM): 264 ng/mL
- mean effective concentration EC95 ([9]; linear regression, corresponds to IC95 in μM): 601 ng/mL
- binding to cyclophilin A [10]: capable of binding to cyclophilin A
- inhibition of HCV-specific RNA replication [11]: potent and selective inhibition
- CC50 at 72 h [12]: 13.7 µM
- selectivity index (CC50/IC50) [13]: 124.5
- concentration at 8 h [14]: 107 ng/mL
- inhibition of peptidyl prolyl isomerase activity of cyclophilin A [15]: inhibiting its intrinsic peptidyl prolyl isomerase activity
- EC50 ([16]; 3 independent experiments, single values, read-out: EC50 (HCV-specific RNA)): 160 nM and 210 nM
- EC90 ([16]; 3 independent experiments, single values, read-out: EC90 (HCV-specific RNA)): 710 nM and 790 nM
- EC50 ([16]; Hepatitis C virus, 72 h, 3 independent experiments, single values, read-out: EC50 (HCV-specific RNA)): 130 nM
- EC90 ([16]; Hepatitis C virus, 72 h, 3 independent experiments, single values, read-out: EC90 (HCV-specific RNA)): 570 nM
- EC50 ([16]; Hepatitis C virus, 72 h, mean of 3 experiments, read-out: mean EC50 (HCV-specific RNA)): 170 nM
- EC90 ([16]; Hepatitis C virus, 72 h, mean of 3 experiments, read-out: mean EC90 (HCV-specific RNA)): 690 nM
- CC50 at 72 h [17]: 14.2 µM
- selectivity index (CC50/IC50) [18]: 129.0
- cell cytotoxicity ([18]; 72-hour incubation, concentrations up to and including 5 μM): No significant cell cytotoxicity
